# Read-outs that look alike come from different tables or passages of the source.
# Experiments:
# Experiment in all cases: MIC, serial dilutions in Müller-Hinton broth
# Type in all cases: cell-based
# E. coli 13 = system: E. coli 13
# Procedure: (§1) A comparative assessment of the spectrum of antibacterial action was carried out on archival and clinical strains of gram-positive and gram-negative microorganisms in accordance with the [Opredeleniye chuvstvitel'nosti mikroorganizmov k antibakterial'nym preparatam (Metodicheskiye ukazaniya MUK 4.2.1890-04). Utverzhdeny i vvedeny v deystviye Glavnym gosudarstvennym sanitarnym vrachom Rossiyskoy Federatsii G. G. Onishchenko 04.03.2004 g. Determination of the sensitivity of microorganisms to antibacterial drugs (Guidelines MUK 4.2.1890-04). Approved and put into effect by the Chief State Sanitary Doctor of the Russian Federation G. G. Onishchenko on 4 Mar. 2004].
# (§2) The value of the minimum inhibitory concentration (MIC) was determined by the method of serial dilutions on Müller-Hinton broth using 96-well sterile plates. Two-fold dilutions of the test substances in a nutrient medium were prepared. The final concentrations were 1-128 ug/ml. The growth of cultures was assessed visually, comparing the growth of microorganisms in the presence of test compounds with the growth of culture without them. […] The first lowest concentration of the studied substance (from a series of consecutive dilutions), where bacterial growth is not visually determined, is considered to be the minimum inhibitory concentration (MIC). MIC was determined by the method of serial dilutions in broth with increment=2, so the differences of neighboring dilutions are not considered to be significant. In each experience there is a positive (broth with growing culture) and a negative (broth without growing culture) control.
# (§3) To determine the MIC, 10 μl of culture medium was taken from those wells in which growth was not observed, and inoculation was performed on a dense Müller-Hinton broth. For the preparation of the inoculum, a pure, daily culture of gram-positive and gram-negative microorganisms grown on a dense nutrient medium was used. Nutrient medium is Müller-Hinton broth, which was prepared from dry media (Müller-Hinton broth, Acumedia, Baltimore), cultivation was carried out on agarized Müller-Hinton broth, including an additional 2% agar. The media were autoclaved at 121° C. for 15 minutes. In a sterile isotonic solution of sodium chloride, a suspension of microorganisms was prepared, adjusting the inoculum density to 0.5 according to the McFarland standard (1.5·10^8 CFU/ml). Then, the resulting inoculum was diluted to a concentration of 10^7 CFU/ml with Müller-Hinton broth. The inoculum was used within 15 minutes after preparation; the purity of the bacterial strains was monitored before each experiment.
# (§4) 100 μl of Müller-Hinton broth was added to the wells of each plate; The tested substance was introduced into the first well at a concentration of 128 μg/ml in a volume of 100 μl and its concentration was adjusted to 0.5 μg/ml by consecutive two-fold dilution. Then, the prepared inoculum (100 μI) was added to each well, thereby diluting twice the concentration of the studied compounds. […] In addition, the purity of nutrient media and solvents was monitored. The plates were incubated in a thermostat at 37° C. for 24 hours. The growth of cultures was assessed visually, comparing the growth of microorganisms in the presence of test compounds with the growth of culture without them.
# (§5) For the MIC was taken the minimum concentration of the studied compounds, providing complete suppression of the visible growth of the studied strains of microorganisms. The maximum value obtained in three independent experiments was taken as the MIC of the compound.
# Kl. pneumoniae 1342 PR = system: Kl. pneumoniae 1342 PR
# Procedure: as §1, §2, §3, §4, §5
# S. aureus 967 MRSA = system: S. aureus 967 MRSA
# Procedure: as §1, §2, §3, §4, §5
# S. haemoliticus 837 MRSA = system: S. haemoliticus 837 MRSA
# Procedure: as §1, §2, §3, §4, §5
# Ps. aeruginosa 2869 = system: Ps. aeruginosa 2869
# Procedure: as §1, §2, §3, §4, §5
# S. aureus 1173 MRSA = system: S. aureus 1173 MRSA
# Procedure: as §1, §2, §3, §4, §5
# Stenotrophomonas spp. 9 = system: Stenotrophomonas spp. 9
# Procedure: as §1, §2, §3, §4, §5
# E. faecalis 3060 = system: E. faecalis 3060
# Procedure: as §1, §2, §3, §4, §5
# S. aureus 1145 MRSA = system: S. aureus 1145 MRSA
# Procedure: as §1, §2, §3, §4, §5
# Pseudomonas spp. 5 = system: Pseudomonas spp. 5
# Procedure: as §1, §2, §3, §4, §5
# Kl. pneumoniae 645 PR = system: Kl. pneumoniae 645 PR
# Procedure: as §1, §2, §3, §4, §5
# Kl. pneumoniae 1435 PR = system: Kl. pneumoniae 1435 PR
# Procedure: as §1, §2, §3, §4, §5
# B. subtilis 168 = system: B. subtilis 168
# Procedure: as §1, §2, §3, §4, §5
# Moraxella sp.829 = system: Moraxella sp.829
# Procedure: as §1, §2, §3, §4, §5
# E. faecium 3062 = system: E. faecium 3062
# Procedure: as §1, §2, §3, §4, §5
# A. baumannii 1440 = system: A. baumannii 1440
# Procedure: as §1, §2, §3, §4, §5
# S. aureus 20 = system: S. aureus 20
# Procedure: as §1, §2, §3, §4, §5
# Moraxella sp.834 = system: Moraxella sp.834
# Procedure: as §1, §2, §3, §4, §5
# S. aureus 1163 MRSA = system: S. aureus 1163 MRSA
# Procedure: as §1, §2, §3, §4, §5
# E. coli MG 1655 = system: E. coli MG 1655
# Procedure: as §1, §2, §3, §4, §5
# Moraxella sp. 723 = system: Moraxella sp. 723
# Procedure: as §1, §2, §3, §4, §5
# S. aureus 22 = system: S. aureus 22
# Procedure: as §1, §2, §3, §4, §5
compound,measurement,setting,value
alkyldimethyl(phenylmethyl) ammonium chloride [Benzalconium chloride],MIC,"E. coli 13; E. coli 13, inoculum 10^7 CFU/ml",2 µg/mL
same,MIC,"Kl. pneumoniae 1342 PR; Kl. pneumoniae 1342 PR, inoculum 10^7 CFU/ml",32 µg/mL
same,MIC,"S. aureus 967 MRSA; S. aureus 967 MRSA, inoculum 10^7 CFU/ml",8 µg/mL
same,MIC,"S. haemoliticus 837 MRSA; S. haemoliticus 837 MRSA, inoculum 10^7 CFU/ml",16 µg/mL
same,MIC,"Ps. aeruginosa 2869; Ps. aeruginosa 2869, inoculum 10^7 CFU/ml",64 µg/mL
same,MIC,"S. aureus 1173 MRSA; S. aureus 1173 MRSA, inoculum 10^7 CFU/ml",8 µg/mL
same,MIC,"Stenotrophomonas spp. 9; Stenotrophomonas spp. 9, inoculum 10^7 CFU/ml",4 µg/mL
same,MIC,"E. faecalis 3060; E. faecalis 3060, inoculum 10^7 CFU/ml",4 µg/mL
same,MIC,"S. aureus 1145 MRSA; S. aureus 1145 MRSA, inoculum 10^7 CFU/ml",2 µg/mL
same,MIC,"Pseudomonas spp. 5; Pseudomonas spp. 5, inoculum 10^7 CFU/ml",32 µg/mL
same,MIC,"Kl. pneumoniae 645 PR; Kl. pneumoniae 645 PR, inoculum 10^7 CFU/ml",16 µg/mL
same,MIC,"Kl. pneumoniae 1435 PR; Kl. pneumoniae 1435 PR, inoculum 10^7 CFU/ml",32 µg/mL
same,MIC,"B. subtilis 168; B. subtilis 168, inoculum 10^7 CFU/ml",0.5 µg/mL
same,MIC,"Moraxella sp.829; Moraxella sp.829, inoculum 10^7 CFU/ml",32 µg/mL
same,MIC,"E. faecium 3062; E. faecium 3062, inoculum 10^7 CFU/ml",1 µg/mL
same,MIC,"A. baumannii 1440; A. baumannii 1440, inoculum 10^7 CFU/ml",32 µg/mL
same,MIC,"S. aureus 20; S. aureus 20, inoculum 10^7 CFU/ml",<0.5 µg/mL
same,MIC,"Moraxella sp.834; Moraxella sp.834, inoculum 10^7 CFU/ml",2 µg/mL
same,MIC,"S. aureus 1163 MRSA; S. aureus 1163 MRSA, inoculum 10^7 CFU/ml",4 µg/mL
same,MIC,"E. coli MG 1655; E. coli MG 1655, inoculum 10^7 CFU/ml",2 µg/mL
same,MIC,"Moraxella sp. 723; Moraxella sp. 723, inoculum 10^7 CFU/ml",4 µg/mL
same,MIC,"S. aureus 22; S. aureus 22, inoculum 10^7 CFU/ml",<0.5 µg/mL
"CCCCCCCCCCCC[N+](C)(C)Cc1cnc(C[N+](C)(C)CCCCCCCCCCCC)c2c1COC(CC)O2 (stereo not drawn) [Compound I, 5,8-(Bis(methylene (N, N-dimethyl-N-dodecylammonium))-2-ethyl-4H-[1,3]dioxino [4,5-c]pyridiniumdichloride]",MIC,"E. coli 13; Escherichia coli, E. coli 13, inoculum 10^7 CFU/ml, read-out: MIC",8 µg/mL
same,MIC,"Kl. pneumoniae 1342 PR; Klebsiella pneumoniae, Kl. pneumoniae 1342 PR, inoculum 10^7 CFU/ml, read-out: MIC",32 µg/mL
same,MIC,"S. aureus 967 MRSA; Staphylococcus aureus, S. aureus 967 MRSA, inoculum 10^7 CFU/ml, read-out: MIC",16 µg/mL
same,MIC,"S. haemoliticus 837 MRSA; S. haemoliticus 837 MRSA, inoculum 10^7 CFU/ml, read-out: MIC",8 µg/mL
same,MIC,"Ps. aeruginosa 2869; Pseudomonas aeruginosa, Ps. aeruginosa 2869, inoculum 10^7 CFU/ml, read-out: MIC",32 µg/mL
same,MIC,"S. aureus 1173 MRSA; Staphylococcus aureus, S. aureus 1173 MRSA, inoculum 10^7 CFU/ml, read-out: MIC",2 µg/mL
same,MIC,"Stenotrophomonas spp. 9; Stenotrophomonas spp. 9, inoculum 10^7 CFU/ml, read-out: MIC",8 µg/mL
same,MIC,"E. faecalis 3060; Enterococcus faecalis, E. faecalis 3060, inoculum 10^7 CFU/ml, read-out: MIC",1 µg/mL
same,MIC,"S. aureus 1145 MRSA; Staphylococcus aureus, S. aureus 1145 MRSA, inoculum 10^7 CFU/ml, read-out: MIC",2 µg/mL
same,MIC,"Pseudomonas spp. 5; Pseudomonas spp. 5, inoculum 10^7 CFU/ml, read-out: MIC",8 µg/mL
same,MIC,"Kl. pneumoniae 645 PR; Klebsiella pneumoniae, Kl. pneumoniae 645 PR, inoculum 10^7 CFU/ml, read-out: MIC",32 µg/mL
same,MIC,"Kl. pneumoniae 1435 PR; Klebsiella pneumoniae, Kl. pneumoniae 1435 PR, inoculum 10^7 CFU/ml, read-out: MIC",32 µg/mL
same,MIC,"B. subtilis 168; Bacillus subtilis, B. subtilis 168, inoculum 10^7 CFU/ml, read-out: MIC",2 µg/mL
same,MIC,"Moraxella sp.829; Moraxella sp.829, inoculum 10^7 CFU/ml, read-out: MIC",4 µg/mL
same,MIC,"E. faecium 3062; Enterococcus faecium, E. faecium 3062, inoculum 10^7 CFU/ml, read-out: MIC",0.5 µg/mL
same,MIC,"A. baumannii 1440; Acinetobacter baumannii, A. baumannii 1440, inoculum 10^7 CFU/ml, read-out: MIC",8 µg/mL
same,MIC,"S. aureus 20; Staphylococcus aureus, S. aureus 20, inoculum 10^7 CFU/ml, read-out: MIC",4 µg/mL
same,MIC,"Moraxella sp.834; Moraxella sp.834, inoculum 10^7 CFU/ml, read-out: MIC",4 µg/mL
same,MIC,"S. aureus 1163 MRSA; Staphylococcus aureus, S. aureus 1163 MRSA, inoculum 10^7 CFU/ml, read-out: MIC",4 µg/mL
same,MIC,"E. coli MG 1655; Escherichia coli, MG1655, E. coli MG 1655, inoculum 10^7 CFU/ml, read-out: MIC",2 µg/mL
same,MIC,"Moraxella sp. 723; Moraxella sp. 723, inoculum 10^7 CFU/ml, read-out: MIC",4 µg/mL
same,MIC,"S. aureus 22; Staphylococcus aureus, S. aureus 22, inoculum 10^7 CFU/ml, read-out: MIC",1 µg/mL
"CCCCCCCCCCCCCC(=O)NCCC[N+](C)(C)Cc1ccccc1.O.[Cl-] [Miramistin, benzyldimethyl [3-(myristoylamino)propyl]-ammonium chloride monohydrate]",MIC,"E. coli 13; Escherichia coli, 13",32 µg/mL
same,MIC,"Kl. pneumoniae 1342 PR; Klebsiella pneumoniae, 1342PR",64 µg/mL
same,MIC,"S. aureus 967 MRSA; Staphylococcus aureus, MRSA",16 µg/mL
same,MIC,S. haemoliticus 837 MRSA,64 µg/mL
same,MIC,"Ps. aeruginosa 2869; Pseudomonas aeruginosa, 2869",64 µg/mL
same,MIC,"S. aureus 1173 MRSA; Staphylococcus aureus, MRSA",16 µg/mL
same,MIC,"Stenotrophomonas spp. 9; Stenotrophomonas, SPP.9",64 µg/mL
same,MIC,"E. faecalis 3060; Enterococcus faecalis, 3060",8 µg/mL
same,MIC,"S. aureus 1145 MRSA; Staphylococcus aureus, MRSA",8 µg/mL
same,MIC,"Pseudomonas spp. 5; Pseudomonas, SPP.5",> 64 µg/mL
same,MIC,"Kl. pneumoniae 645 PR; Klebsiella pneumoniae, 645PR",64 µg/mL
same,MIC,"Kl. pneumoniae 1435 PR; Klebsiella pneumoniae, 1435PR",64 µg/mL
same,MIC,"B. subtilis 168; Bacillus subtilis, 168",2 µg/mL
same,MIC,"Moraxella sp.829; Moraxella, SP.829",32 µg/mL
same,MIC,"E. faecium 3062; Enterococcus faecium, 3062",0.5 µg/mL
same,MIC,"A. baumannii 1440; Acinetobacter baumannii, 1440",64 µg/mL
same,MIC,"S. aureus 20; Staphylococcus aureus, 20",32 µg/mL
same,MIC,"Moraxella sp.834; Moraxella, SP.834",32 µg/mL
same,MIC,"S. aureus 1163 MRSA; Staphylococcus aureus, MRSA",4 µg/mL
same,MIC,"E. coli MG 1655; Escherichia coli, MG1655",8 µg/mL
same,MIC,"Moraxella sp. 723; Moraxella, SP.723",32 µg/mL
same,MIC,"S. aureus 22; Staphylococcus aureus, 22",8 µg/mL
